Usually IC50 stands for the concentration that inhibits the measured activity by half. For orientation: half-life means how long it takes for the measured level to halve. Usually inhibition stands for the relative decrease from the control value, in per cent. Broadly, the EC50 is the concentration needed to bring the measured effect to its halfway point.

The target in data set [1] is T1, RhlR (Pseudomonas aeruginosa, UniProt P54292).
T1 construct: expressed in transfected cells; host or cells: E. coli JLD271 (ΔsdiA) with pJN105R2 (arabinose-induced) and pSC11-rhlI*
The data set is described as follows: P. aeruginosa RhlR reporter antagonism assay vs 10 μM BHL (PAO-JP2/prhlI-LVAgfp). In kind it is cell-based. How it is done:
FIGS. 10A and B illustrate exemplary dose-response curves for RhlR antagonism in the E. coli JLD271/pJN105R2/pSC11-rhlI* reporter strain vs. 10 μM BHL (FIG. 10A) and in the P. aeruginosa PAO-JP2/prhlI-LVAgfp reporter strain vs. 10 μM BHL (FIG. 10B).
(§1) To evaluate the RhlR-modulatory activities of selected compounds in P. aeruginosa, the ΔlasIrhlI strain PAO-JP2 harboring plasmid prhlI-LVAgfp was used as previously reported.^38 Briefly, a subculture was prepared by diluting an overnight culture 1:100 in fresh LB and was grown to OD600=0.3. […] Subculture was treated with 100 nM OdDHL (to induce native expression of RhlR) by adding the appropriate amount of OdDHL stock solution in DMSO. The subculture was then dispensed ([…] aliquots) into each synthetic compound-containing well of the microtiter plate.
(§2) Plates were incubated at 37° C. for 6 h, and GFP production was monitored by using a Synergy 2 plate reader (λex=500 nm, λem=540 nm; BioTek, Winooski, Vt.) and quantified with Gen5 1.05 software (BioTek). The final OD600 for each well was measured to normalize GFP production to cell density. All synthetic compounds were tested in triplicate, and three separate trials were performed with unique cultures. Agonism dose-response analyses were performed by testing compounds over a range of concentrations with the RhlR reporter.

Data set [2] is described as follows: Hydrolytic stability in buffers of varying pH by HPLC. In kind it is physicochemical. Particulars: room temperature. The procedure:
To assess the relative stability of the thiolactone and homoserine lactone moieties, stability studies were performed as reported previously,^53 with the following changes. Compounds RN22 and E22 (50 μM) were dissolved in either 1 mM 2-(N-morpholino)-ethanesulfonic acid (MES) buffer at pH 6, or 1 mM tris(hydroxymethyl)-aminomethane (TRIS) buffer at pH 7, pH 8, or pH 9. Solutions were placed static at room temperature, and 150 μL aliquots were taken every two hours for eight hours, then again at 24 hours. Samples were immediately separated via HPLC, and the area under the curve (AUC) at 220 nm was calculated and compared to the area at t=0. […] Degradation of both compounds to the hydrolysis product was confirmed via mass spectrometry of the resulting byproduct peak.
P. aeruginosa media is observed to become more alkaline over time, making the hydrolytic instability of the homoserine lactone head group a concern in developing AHL-type modulators for use in the wild-type organism. […] To evaluate their stability in a more direct assay, the stability of thiolactone RN22 relative to its lactone homolog E22 was monitored over time and at varying pH values using HPLC. The amount of compound RN22 remaining over 24 h was compared to E22. […] Degradation products were confirmed to be the hydrolyzed lactone head groups via mass spectroscopy.

For data set [3], the target named is T1, RhlR. The data set is described as follows: E. coli RhlR reporter antagonism assay vs 10 μM BHL (JLD271/pJN105R2/pSC11-rhlI*). In kind it is cell-based, P. aeruginosa. Particulars: for Maximum Inhibition (%): E. coli reporter, relative to activation of 10 μM BHL alone; for inhibition at 10 µM: read-out: % inhibition (10 μM), compound at 10 μM in the presence of 10 μM BHL; for inhibition at 10 µM / inhibition at 1000 µM: negative = agonism stronger than 10 μM BHL alone; for inhibition at 1000 µM: read-out: % inhibition (1 mM), compound at 1 mM in the presence of 10 μM BHL. The procedure: (§3) All media and reagents for bacterial culture were purchased from commercial sources. Bacteria were cultured in Luria-Bertani broth (LB) at 37° C. with shaking at 200 rpm unless otherwise noted. The bacterial reporter strains used for this study were (i) the heterologous E. coli strain JLD271 (ΔsdiA) harboring the RhlR expression plasmid pJN105R2 and the rhlI-lacZ transcriptional fusion reporter pSC11-rhlI*, (ii) the heterologous E. coli strain JLD271 (ΔsdiA) harboring the LasR expression plasmid pJN105L and the […] transcriptional fusion reporter pSC11, and (iii) the P. aeruginosa strain PAO-JP2 (ΔlasrhlI) harboring the rhlI-gfp transcriptional fusion reporter prhlI-LVAgfp. Reporter strains JLD271/pJN105R2/pSC11-rhlI* and JLD271/pJN105L/pSC11 were grown in LB containing 100 μg/mL ampicillin and 10 μg/mL gentamicin. Freezer stocks of bacterial strains were maintained at −80° C. in 1:1 LB:50% glycerol.
To evaluate the modulatory activities of library compounds on RhlR and LasR using E. coli reporters, the strains JLD271/pJN105R2/pSC11-rhlI* and JLD271/pJN105L/pSC11 were used, respectively, as previously described.^38, 51 The following modifications were used in the RhlR agonism reporter assay, non-native compounds (10 μM or 1 mM) were compared to 1 mM BHL as the positive control. Briefly, a subculture was prepared by diluting an overnight culture 1:10 with fresh media containing 100 μg/mL ampicillin and 10 μg/mL gentamicin, and was incubated until it had grown to OD600=0.45. In all assays, L-arabinose was added to a final concentration of 4 mg/mL to induce RhlR expression. For RhlR agonism assays, activities of test compounds were measured relative to 1 mM BHL (the concentration required to induce a maximal level of RhlR activity). […] Activity was measured relative to 10 μM BHL. Inhibition was calculated by subtracting 100% from the relative activity value. Thus, 0% inhibition mimics represents no competitive displacement of 10 μM BHL by a test compound. In all assays, modifications were made to the standard Miller assay protocol to accommodate the use of the chlorophenol red-β-D-galactopyranoside (CPRG) β-galactosidase substrate. After cell lysis, 150 μL of the aqueous layer was transferred from each well of a solvent-resistant 96-well microtiter plate to the wells of a new clear, flat-bottom 96-well microtiter plate. CPRG (4 mg/mL in phosphate-buffered saline) was added to each well in 25 μL volumes. Plates were incubated at 30° C. until the positive control wells developed a red color (approximately 30 min). The amount of processed CPRG substrate was assessed by measuring the absorbance of each well at 570 nm. Enzymatic activity was calculated using the following equation: adjusted Miller units=1000·Abs570/(OD600·t·V),
(§4) where t is the incubation time of substrate with lysate and V is the volume of culture lysed.
The RhlR-modulatory activity of the J library compounds was assessed in a heterologous reporter strain (E. coli JLD271 harboring plasmids pJN105R2 and pSC11-rhlI*) in order to isolate the RhlR receptor from upstream QS regulation (e.g. regulation by LasR). Thus, the extent to which compounds were directly modulating RhlR could be determined. These assays were performed by incubating compound-treated, mid-log phase E. coli reporter cells in 96-well microtiter plates, followed by Miller assay evaluation of ß-galactosidase activity.
RhlR agonism and antagonism screens of each compound were performed initially at 10 μM.

Data set [4] concerns the target T1, RhlR. The data set is described as follows: P. aeruginosa RhlR reporter agonism assay (PAO-JP2/prhlI-LVAgfp). In kind it is cell-based. Particulars: P. aeruginosa reporter compared with E. coli reporter. The procedure: as §3, §1, §2
Library compounds J18 and J24, as well as controls BHL and S4, were evaluated for potency in the native genetic background of RhlR by using the P. aeruginosa strain PAO-JP2 (ΔlasIrhlI) harboring the RhlR reporter plasmid prhlI-LVAgfp (Table 3). Because the production of RhlR is dependent on LasR (in LB medium), all assays were performed in the presence of 100 nM OdDHL, enabling immediate transcription of RhlR via LasR activation. […] All compounds also retained similar potencies when screened in the P. aeruginosa background.

Data set [5] addresses T1, RhlR. Description: E. coli RhlR reporter agonism assay (JLD271/pJN105R2/pSC11-rhlI*). In kind it is cell-based, P. aeruginosa. The procedure: as §3
(§5) To evaluate the modulatory activities of library compounds on RhlR and LasR using E. coli reporters, the strains JLD271/pJN105R2/pSC11-rhlI* and JLD271/pJN105L/pSC11 were used, respectively, as previously described.^38, 51 The following modifications were used in the RhlR agonism reporter assay, non-native compounds (10 μM or 1 mM) were compared to 1 mM BHL as the positive control. Briefly, a subculture was prepared by diluting an overnight culture 1:10 with fresh media containing 100 μg/mL ampicillin and 10 μg/mL gentamicin, and was incubated until it had grown to OD600=0.45. In all assays, L-arabinose was added to a final concentration of 4 mg/mL to induce RhlR expression. For RhlR agonism assays, activities of test compounds were measured relative to 1 mM BHL (the concentration required to induce a maximal level of RhlR activity). For RhlR antagonism assays, test compounds were competed against a concentration of BHL approximately equal to its EC50 value (10 μM). Activity was measured relative to 10 μM BHL. Inhibition was calculated by subtracting 100% from the relative activity value. Thus, 0% inhibition mimics represents no competitive displacement of 10 μM BHL by a test compound. In all assays, modifications were made to the standard Miller assay protocol to accommodate the use of the chlorophenol red-β-D-galactopyranoside (CPRG) β-galactosidase substrate. After cell lysis, 150 μL of the aqueous layer was transferred from each well of a solvent-resistant 96-well microtiter plate to the wells of a new clear, flat-bottom 96-well microtiter plate. CPRG (4 mg/mL in phosphate-buffered saline) was added to each well in 25 μL volumes. Plates were incubated at 30° C. until the positive control wells developed a red color (approximately 30 min). The amount of processed CPRG substrate was assessed by measuring the absorbance of each well at 570 nm. Enzymatic activity was calculated using the following equation: adjusted Miller units=1000·Abs570/(OD600·t·V),
as §4
Because LuxR-type receptors are often unstable in solution, preventing the use of in vitro assays to directly assess small molecule agonism and antagonism, reporter gene assays represent a standard method for screening small-molecule libraries for LuxR-type receptor modulation. Previously reported strains for this purpose were used in the current study.^38 Synthetic N-butanoyl L-homoserine lactone (BHL), the native ligand of RhlR, was used as the positive control for receptor activation. Commonly, agonists are measured relative to maximum possible receptor activation within a particular assay medium;^40 because the dose-response curve of BHL is distinctly shallow in these RhlR reporters, a high concentration of BHL is required to maximally activate RhlR. In this study, activation of compounds was measured relative to that elicited by 1 mM BHL (the concentration of BHL used causes no aberrant growth effects in the reporter strain). […]

For data set [6], the target named is T1, RhlR. Description: P. aeruginosa RhlR reporter agonism assay (PAO-JP2/prhlI-LVAgfp). Format: cell-based.
The target of another data set is T2, LasR (Pseudomonas aeruginosa, UniProt P25084).
T2 construct: expressed in transfected cells; host or cells: E. coli JLD271 (ΔsdiA) with pJN105L and pSC11
Description: Selectivity of RhlR agonism over LasR agonism (E. coli LasR reporter JLD271/pJN105L/pSC11). In kind it is cell-based, P. aeruginosa. As to conditions: RhlR % activity divided by LasR % activity, > = negligible activity in LasR reporter. The procedure:
as §3, §5
LasR assays were processed using the protocol for the substrate ortho-nitrophenyl-β-galactoside (ONPG) as previously described elsewhere.^53; and LasR antagonism assays were performed versus the EC50 for OdDHL (2 nM).
The selectivity of certain compounds for RhlR over LasR was measured using a LasR reporter strain (details above). Table 6 provides a comparison of selectivity of RhlR agonism over LasR agonism for exemplary compounds. Table 7 provides a comparison of selectivity of RhlR antagonism over LasR antagonism for exemplary compounds.

[7] abbreviates: read-out: Maximum Activation (%).

SMILES strings stand for the structures. Entries after “also recorded” stand apart in the source; their conditions may differ. Marks after values point to notes of the source that are not given here. A value given as a limit tells only on which side of the number the result lay.

T1 sequence (P54292 whole entry): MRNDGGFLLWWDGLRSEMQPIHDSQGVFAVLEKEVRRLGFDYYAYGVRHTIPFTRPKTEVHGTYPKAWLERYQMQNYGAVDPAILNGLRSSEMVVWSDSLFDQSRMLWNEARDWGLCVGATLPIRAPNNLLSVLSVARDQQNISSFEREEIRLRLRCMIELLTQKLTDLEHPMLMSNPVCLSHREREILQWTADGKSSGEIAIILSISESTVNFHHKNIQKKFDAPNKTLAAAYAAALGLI
T2 sequence (P25084 whole entry): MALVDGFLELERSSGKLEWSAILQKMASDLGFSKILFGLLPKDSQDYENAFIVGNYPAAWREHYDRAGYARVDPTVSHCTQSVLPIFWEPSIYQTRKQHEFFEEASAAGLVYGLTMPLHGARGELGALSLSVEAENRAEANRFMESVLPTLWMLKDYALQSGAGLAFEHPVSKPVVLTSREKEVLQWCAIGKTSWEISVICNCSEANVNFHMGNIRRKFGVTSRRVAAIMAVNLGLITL

With `O=C(COc1ccc(I)cc1)NC1CCOC1=O` (centres unmarked) [Compound E22, reference compound], the IC50 at RhlR [1] came out at 23.9 µM; against RhlR [3], 17.3 µM. Also, the “Maximum Inhibition (%)” value on RhlR [1] (P. aeruginosa reporter, relative to activation of 10 μM BHL alone) was 96%; on RhlR [3], 74%. Also, at RhlR [1] (vs 10 μM BHL), the “fold change of IC50 from E. coli to P. aeruginosa reporter” value is listed as approximately 1.4 fold. In addition, the “increase of maximum inhibition from E. coli to P. aeruginosa reporter” value on RhlR [1] (vs 10 μM BHL) is “more than 20%”. Further, the half-life at 50 μM in data set [2] (pH 6, 1 mM MES buffer) is 182 h; in data set [2] (pH 7, 1 mM TRIS buffer), 48.1 h; in data set [2] (pH 8, 1 mM TRIS buffer) it was 10.1 h; in data set [2] (pH 9, 1 mM TRIS buffer) it was 2.3 h.
Regarding `O=C(NC1CCCC1)C1CCC1` [RN13], the “RhlR agonist potency in words” value at RhlR [4] is recorded as “maintained activity between the two different reporters”. For the same molecule, at RhlR [3], the IC50 is 26.7 µM, the “Maximum Inhibition (%)” value is given as 32%, the inhibition at 10 µM worked out at 24% and the inhibition at 1000 µM was 25%. Also, the “RhlR antagonist activity in words” value at RhlR [3] (E. coli reporter vs 10 μM BHL) is “potent antagonist activity; also recorded: two-fold increased potency as measured by IC50 over parent compound RN4; also recorded: undesirable non-monotonic behavior”. On RhlR [5] (compound at 10 μM, RhlR activity relative to 1 mM BHL, E. coli reporter), this molecule yielded an activation at 10 µM of 0%.
Consider `O=C(N[C@H]1CCSC1=O)C1CCC1` [RN15], for which the EC50 is 1.65 µM on RhlR [6] and 1.72 µM on RhlR [5]. For the same molecule, the Emax was 90% on RhlR [6] (setting [7]) and 106% on RhlR [5] (setting [7]). Further, the “Fold selectivity of RhlR agonists over LasR agonism” value is reported as 11 fold at LasR (tested concentration 1 mM) and >88^b fold on LasR (tested concentration 10 μm). Also, the inhibition at 10 µM on RhlR [3] was -85%. In addition, the inhibition at 1000 µM on RhlR [3] was -114%. The “RhlR agonist potency in words” value at RhlR [5] (dose-response, E. coli reporter) is reported as “equipotent to the cyclobutanoic tail group parent, compound J24”.
